In article PMC8739290, “A phase 1b study of erlotinib and momelotinib for the treatment of EGFR-mutated, tyrosine kinase inhibitor-naive metastatic non-small cell lung cancer” (Cancer Chemotherapy and Pharmacology, 2021):
Where two headings read alike, the source gives them in different places.

Experiments:
[1] = Pharmacokinetics of erlotinib during monotherapy and in combination with momelotinib (LC–MS/MS); format: in vivo, human; details: for Cmax: mean (%CV)
Method: (§1) Prior to momelotinib dosing, blood samples were collected before a dose of erlotinib and at 0.5, 1, 2, 4, 6, 8, and 24 h after erlotinib dosing. On day 15 of cycle 1, blood samples were collected at the same time points after dosing with momelotinib and erlotinib (the 24-h time point was only applicable for momelotinib QD dosing). The concentrations of momelotinib and its major metabolite GS-644603 were evaluated using a liquid chromatography-tandem mass spectrometry (LC–MS/MS) assay with solid phase extraction validated over the range of 0.5–1000 ng/mL for each analyte. The concentration of erlotinib was determined using an LC–MS/MS assay with protein precipitation validated over the range of 5–5000 ng/mL. […] Pharmacokinetic (PK) parameters were estimated using standard noncompartmental methods with Phoenix WinNonlin® software (Certara, Princeton, NJ).
(§2) Any patient who received ≥ 1 dose of study drug was included in the safety and efficacy analyses. Descriptive statistics were used to summarize study characteristics, DLTs, and AEs, including by dose level. ORR was summarized with corresponding two-sided 90% exact confidence intervals (CIs) using the binomial distribution. Both OS and PFS were summarized using Kaplan–Meier estimates and corresponding 90% CIs. Patient concentration data and PK parameters for erlotinib, momelotinib, and its major metabolite GS-644603 were summarized by dose level using descriptive statistics.

aldehyde oxidase = test system: aldehyde oxidase; parameters: method as in PMID 32393528; details: cited from earlier work
[2] = test system: STAT3 signaling in EGFR-mutant cell lines; parameters: method as in PMID 25065853, PMID 22712764; details: via autocrine- and paracrine-secreted factors such as IL-6; cited from earlier work
[3] = test system: patients with EGFR-mutated NSCLC; details: erlotinib monotherapy, cited from earlier work
[4] = test system: patients with EGFR TKI-naive, EGFR-mutated NSCLC; experiment: Safety in phase 1b dose-escalation study: DLTs and adverse events (CTCAE version 4.03)
Description: This was an open-label, dose-escalation phase 1b study, which comprised a dose-escalation phase, followed by a planned, randomized, expansion phase of the combination of erlotinib plus momelotinib vs. erlotinib alone (ClinicalTrials.gov Identifier: NCT02206763). An erlotinib lead-in was utilized during the dose-escalation phase since erlotinib’s toxicities of rash and diarrhea onset in the first 2–3 weeks of treatment allowing for (i) dose adjustment for erlotinib-related toxicities as per clinical standard of care prior to combination with momelotinib; (ii) examination of the impact of momelotinib on erlotinib steady-state pharmacokinetics; and (iii) accurate assessment of toxicity attribution during the combination treatment period.
Patients were screened within 28 days of the start of study treatment and cycles were defined as 28 days. Erlotinib was self-administered orally once daily (QD) at least 1 h before or 2 h after a meal, with doses permitted at 50, 75, 100, or 150 mg. Dose reductions were permitted for management of erlotinib-related toxicity such as rash and diarrhea. Momelotinib was dose escalated following a standard 3 + 3 design starting at 100 mg QD (Table 1). Momelotinib was self-administered orally QD or twice daily (BID) (Table 1), with the latter planned dosing frequency differing from that used in myelofibrosis trials. Study treatment continued until disease progression, unacceptable toxicity, or consent withdrawal.
The primary endpoint was the incidence of dose-limiting toxicities (DLTs). Physical exams and safety labs were performed on day 1 of cycle 1, day 15 of cycle 1, and on the first day of each cycle thereafter. Adverse events (AEs) were coded using the Medical Dictionary for Regulatory Activities (MedDRA), graded according to the Common Terminology Criteria for Adverse Events (CTCAE) version 4.03, and collected until 30 days after the last dose of the study treatment.
DLTs were assessed during the first 28 days of combined erlotinib and momelotinib treatment and defined as clinically significant AEs related to study treatment. Prespecified hematologic DLTs only included grade 4 neutropenia (absolute neutrophil count [ANC] < 500/μL) and grade 4 thrombocytopenia (platelet count < 25,000/μL). Important exceptions for related grade 3 nonhematologic toxicities included grade 3 nausea or vomiting ≤ 48 h duration, diarrhea or rash that improved to grade 0 to 1 within 21 days of interruption of erlotinib, and alanine aminotransferase (ALT) or aspartate aminotransferase (AST) ≥ 5 times the upper limit of normal (ULN) that improved to ≤ 3 times the ULN within 21 days. Treatment delays of ≥ 28 days due to a treatment-emergent AEs (TEAEs) were also considered DLTs.
as §2

[5] = test system: pSTAT3 in IL-6–stimulated lymphocytes; experiment: pSTAT3 phospho-flow cytometry on whole blood of patients after 2 weeks on momelotinib (exploratory); format: cell-based, human; details: whole blood of 8 patients, data not shown
EGFR-mutated NSCLC = experiment: Efficacy in phase 1b study per RECIST version 1.1 (ORR, DoR, PFS, OS); format: in vivo, human
Method: Imaging by computed tomography (CT) with contrast was performed at baseline, every 8 weeks during year 1 and every 12 weeks thereafter. If a patient had brain metastases, brain magnetic resonance imaging (MRI) was repeated on the same schedule.

[6] = test system: JAK1/2-mediated STAT3 phosphorylation in IL-6–stimulated human peripheral blood mononuclear cells; details: read-out: mean half maximal effective concentration, inhibition of JAK1/2-mediated STAT3 phosphorylation; cited from earlier work
[7] = test system: patients with KRAS-mutated NSCLC; parameters: method as in PMID 30087028; details: cited from earlier work
[8] = Steady-state pharmacokinetics of momelotinib and metabolite GS-644603 (LC–MS/MS, noncompartmental); format: in vivo, human; details: for half-life / Cmax / Tmax: day 15 of cycle 1; for half-life / Tmax: median (Q1, Q3); for Cmax: mean (%CV)
Method: as §1, §2

[9] = test system: pancreatic adenocarcinoma; parameters: method as in PMID 30105668; details: momelotinib added to nab-paclitaxel and gemcitabine; cited from earlier work
[10] = test system: colony formation in soft agar assays; parameters: method as in PMID 22319590; details: cited from earlier work
[11] = test system: patients who had progressed on at least 1 first-generation EGFR TKI; parameters: method as in PMID 31319994; details: ruxolitinib in combination with afatinib, cited from earlier work
[12] = test system: patients with documented progression on erlotinib; parameters: method as in PMID 27613527; details: ruxolitinib in combination with erlotinib, cited from earlier work
HCC-827 xenograft models = test system: HCC-827 xenograft models; parameters: method as in PMID 22319590; details: cited from earlier work
HCC4006 xenograft model = test system: HCC4006 xenograft model; parameters: method as in PMID 25065853; details: ruxolitinib plus erlotinib; cited from earlier work
[13] = randomized phase 3 study, ref 33
[14] = erlotinib + momelotinib, all dose levels, n = 11
[15] = human, in vivo, oral, momelotinib analyte, momelotinib 100 mg QD + erlotinib, n = 2
[16] = human, in vivo, oral, momelotinib analyte, momelotinib 200 mg QD + erlotinib, n = 2
[17] = momelotinib 200 mg QD vs 100 mg QD, with erlotinib, momelotinib analyte
[18] = with erlotinib, compared with ref 35

## C#Cc1cccc(Nc2ncnc3cc(OCCOC)c(OCCOC)cc23)c1 [erlotinib]
[1]; day 1 of cycle 1 vs day 15 of cycle 1 with momelotinib, all momelotinib dose level groups
  erlotinib exposure (Cmax and AUCtau), monotherapy vs combination: comparable
[1]; erlotinib monotherapy, Day 1, dose level 2A cohort, erlotinib 150 mg QD, n = 3
  Cmax: 2040.0 (42.5) ng/mL
[1]; erlotinib with momelotinib 100 mg BID, Day 15, erlotinib 150 mg QD, n = 5
  Cmax: 1782.0 (17.3) ng/mL
[1]; erlotinib with momelotinib 200 mg QD, Day 15, erlotinib 150 mg QD, n = 2
  Cmax: 1740.0 (17.9) ng/mL
[1]; human, in vivo, oral, erlotinib monotherapy, Day 1, dose level 1 cohort, erlotinib 150 mg QD (1 patient 100 mg QD), n = 3, read-out: Cmax
  Cmax: 1810 ng/mL
Aldehyde oxidase
  inhibition of aldehyde oxidase: potent inhibitor
[2]
  effect on STAT3 signaling: induce feedback activation of STAT3 signaling
[3]; randomized phase 3 study, ref 2
  neutropenia rate: 0%
[3]; [13]
  decreased neutrophils rate: 1.8%
  neutropenia rate: 4.5%
[3]; randomized phase 3 study, ref 34
  neutropenia rate: 6%
[3]
  ANCs less than < 1000/mm^3 (grade 3 or greater): rarely observed
  ORR, range over prior studies: 62.7 to 83%
  median PFS, range over prior studies: 9.7 to 11 months
[4]; 2 of 11 patients: grade 4 neutropenia, grade 1 hepatitis B
  patients who discontinued erlotinib due to AEs: 18.2%
[4]; across all dose levels, with momelotinib
  patients with dose reductions of erlotinib (all for AEs): 4 patients
[4]; [14]
  diarrhea considered related to erlotinib: 63.6%
  dry skin considered related to erlotinib: 54.5%
  paronychia considered related to erlotinib: 54.5%

## N#CCNC(=O)c1ccc(-c2ccnc(Nc3ccc(N4CCOCC4)cc3)n2)cc1 [momelotinib]
[5]; after 2 weeks on treatment
  pSTAT3 inhibition in IL-6–stimulated lymphocytes: temporarily inhibited pSTAT3 shortly after dosing
[5]
  correlation between total plasma momelotinib concentration and pSTAT3 inhibition: no correlation
EGFR-mutated NSCLC; momelotinib + erlotinib, across dose levels
  reductions from baseline in sum of diameters of target lesions, range: 23.1 to 71.7%
EGFR-mutated NSCLC; momelotinib + erlotinib, across dose levels, N = 11
  mean best percentage change in the sum of diameters of target lesions: −42.5 ± 17.1%
EGFR-mutated NSCLC; momelotinib + erlotinib, all dose levels, 6 of 11 patients, 90% CI 27.1–80.0
  overall response rate (ORR), confirmed, all partial: 54.5%
EGFR-mutated NSCLC; momelotinib + erlotinib, 1 patient, dose level 2B
  progressive disease (PD) as best response: 9.1%
EGFR-mutated NSCLC; momelotinib + erlotinib, 4 of 11 patients
  stable disease: 36.4%
EGFR-mutated NSCLC; momelotinib + erlotinib, 90% CI 4.4–9.6
  median duration of response (DoR): 7.2 months
EGFR-mutated NSCLC; momelotinib + erlotinib, Kaplan–Meier, 90% CI 6.2–12.4
  median PFS: 9.2 months
EGFR-mutated NSCLC; momelotinib + erlotinib, data finalization April 24, 2017
  median OS: not reached
EGFR-mutated NSCLC; patient at dose level 2B, momelotinib 100 mg BID + erlotinib
  longest DoR: 11.2 months
[1]; momelotinib 100 mg QD, 200 mg QD, 100 mg BID
  impact of momelotinib on the PK of erlotinib: no impact
[6]
  EC50: 259 nM
[7]; momelotinib added to trametinib, KRAS-mutated NSCLC
  efficacy vs historical control trametinib monotherapy: did not improve efficacy
[7]; momelotinib dosed up to 150 mg BID in combination with trametinib
  neutropenia: no neutropenia event
[8]; human, blood, oral, momelotinib analyte, momelotinib 100 mg BID + erlotinib, n = 4
  half-life: 8.6 h
[8]; human, in vivo, oral, momelotinib analyte, momelotinib 100 mg BID + erlotinib, n = 4
  Cmax: 884 ng/mL
[8]; [15]
  Cmax: 528 ng/mL
  half-life: 11.8 h
[8]; [16]
  Cmax: 852 ng/mL
  half-life: 10.2 h
[8]; human, in vivo, oral, momelotinib analyte, momelotinib 200 mg QD + erlotinib, n = 2, read-out: Tmax
  Tmax: 1.5 h
[8]; [17]
  dose proportionality of Cmax: slightly less than dose-proportional increase
  dose proportionality of exposure (AUCtau): slightly more than dose-proportional increase
[8]; momelotinib analyte, momelotinib 100 mg BID + erlotinib, n = 4
  Tmax: 1.0 (1.0, 1.5) h
[8]; momelotinib analyte, momelotinib 100 mg QD + erlotinib, n = 2
  Tmax: 1.0 (1.0, 1.0) h
[8]; steady state, day 15 of cycle 1, with erlotinib
  time to momelotinib peak concentration after dosing: 1 to 2 h
[8]; [18]
  momelotinib maximum concentration and exposure compared with earlier reports: higher than previously reported
  momelotinib terminal elimination half-life compared with earlier reports: prolonged
[9]
  efficacy vs historical control chemotherapy: did not improve efficacy
[4]; 1 year after start of momelotinib + erlotinib, led to discontinuation of both
  grade 1 reactivation of hepatitis B: 1 patient
[4]; all dose levels, momelotinib + erlotinib
  treatment-related deaths: no treatment-related deaths observed
[4]; human, in vivo
  dose interruptions of momelotinib: 5 n
  dose reductions of momelotinib (due to AEs): 2 n
  patients who discontinued momelotinib for AEs: 27.3%
[4]; in combination with standard dosing of erlotinib, 3 + 3 design, DLTs in first 28 days
  maximum tolerated dose (MTD) of momelotinib: 200 mg QD

## N#CC[C@H](C1CCCC1)n1cc(-c2ncnc3[nH]ccc23)cn1 [ruxolitinib]
[10]
  colony formation: decreased colony formation
[11]; patients with EGFR T790M, 5 of 20
  objective response: 25%
[11]; patients with EGFR T790M, 95% CI 2.5–7.3
  median PFS: 4.9 months
[11]; patients without EGFR T790M, 2 of 10
  objective response: 20%
[11]; patients without EGFR T790M, 95% CI 0.0–8.8
  median PFS: 3.1 months
[12]; 1 of 22 patients
  objective response: 5%
[12]; 95% CI 1.5–4.1
  median PFS: 2.2 months
HCC-827 xenograft models
  tumor growth: slowed tumor growth
HCC4006 xenograft model
  combination activity compared to EGFR inhibition alone: synergistic activity
